Test results reported in the NIST ThermoML archive (doi:10.1021/je0501890).

Experiment: xn = mol fraction of the nth substance listed
Conditions: 101.33 kPa, Liquid

ClC(Cl)=C(Cl)Cl [tetrachloroethene] + CCCCCCCO
Conditions | mass density, 293.15 K [kg/m3] | mass density, 298.15 K [kg/m3] | mass density, 303.15 K [kg/m3] | viscosity, 293.15 K [mPa·s] | viscosity, 298.15 K [mPa·s] | viscosity, 303.15 K [mPa·s]
x2 = 0.0564 | 1560.55 | 1552.56 | 1544.51 | – | – | –
x2 = 0.098 | 1516.9 | 1509.2 | 1501.4 | – | – | –
x2 = 0.1052 | – | – | – | 1.064 | 0.993 | 0.961
x2 = 0.152 | 1462.26 | 1454.91 | 1447.45 | – | – | –
x2 = 0.2 | – | – | – | 1.285 | 1.186 | 1.116
x2 = 0.2001 | 1415.53 | 1408.42 | 1401.24 | – | – | –
x2 = 0.248 | 1370.53 | 1363.81 | 1356.93 | – | – | –
x2 = 0.2939 | – | – | – | 1.569 | 1.441 | 1.321
x2 = 0.2944 | 1328.47 | 1321.91 | 1315.32 | – | – | –
x2 = 0.3527 | 1277.56 | 1271.32 | 1265.06 | – | – | –
x2 = 0.3983 | 1239.09 | 1233.07 | 1227.04 | – | – | –
x2 = 0.4073 | – | – | – | 2.024 | 1.83 | 1.661
x2 = 0.4484 | 1198.21 | 1192.43 | 1186.64 | – | – | –
x2 = 0.4612 | – | – | – | 2.292 | 2.05 | 1.851
x2 = 0.4982 | – | – | – | 2.509 | 2.231 | 2.002
x2 = 0.5051 | 1153.53 | 1148.07 | 1142.54 | – | – | –
x2 = 0.5477 | 1121.03 | 1115.76 | 1110.45 | – | – | –
x2 = 0.55 | – | – | – | 2.827 | 2.501 | 2.222
x2 = 0.5992 | – | – | – | 3.169 | 2.798 | 2.462
x2 = 0.6002 | 1082.09 | 1077.06 | 1071.96 | – | – | –
x2 = 0.6503 | 1046.14 | 1041.3 | 1036.45 | – | – | –
x2 = 0.6926 | – | – | – | 3.922 | 3.397 | 2.958
x2 = 0.7419 | 983.09 | 978.66 | 974.19 | – | – | –
x2 = 0.8016 | 943.84 | 939.63 | 935.38 | – | – | –
x2 = 0.8034 | – | – | – | 4.966 | 4.249 | 3.631
x2 = 0.8533 | 910.96 | 906.93 | 902.87 | – | – | –
x2 = 0.8578 | – | – | – | 5.52 | 4.704 | 4.03
x2 = 0.8961 | – | – | – | 5.942 | 5.052 | 4.324
x2 = 0.8963 | 884.26 | 880.43 | 876.54 | – | – | –
x2 = 0.9453 | 854.68 | 851.01 | 847.3 | – | – | –
